US11279726B2, “Norbornene-based amphipathic compound and utilization thereof” (Industry-University Cooperation Foundation Hanyang …, priority 2017, dated 2022)

How the values were obtained:
[1] = target: T1, β2AR / β2AR-Gs complex (Homo sapiens, UniProt P07550); experiment: Size exclusion chromatography of β2AR and β2AR-Gs complex after amphiphile exchange; settings: after amphiphile exchange, 20x CMC
T1 construct: Flag; made in house
Description: (§1) β2AR purified with 0.1 wt % DDM was loaded onto an M1 Flag column in the presence of 2 mM […], and the column was washed with a DDM or X-NBM-C11 buffer (20 mM HEPES pH 7.5, 100 mM NaCl, 0.2% respective amphiphile). The receptor was eluted in 20× CMC DDM or X-NBM-C11 containing 5 mM EDTA and 0.2 mg/ml free Flag peptide. The eluate was further applied to a superdex-200 10/300 GL column (GE healthcare) at 0.5 ml/min, and UV absorbance at 280 nm was recorded. The running buffer contained 20 mM HEPES pH 7.5, 100 mM NaCl, 20× CMC individual detergents (DDM and X-NBM-C11).
(§2) In addition, GPCR-Gs complex purified in DDM was replaced with X-NBM-C11 through amphiphilic molecule exchange, and sample aliquots were obtained at regular intervals in 21-day incubation at 4° C. to measure complex stability.

[2] = system: β2AR / β2AR-Gs complex; experiment: as above; set-up: species or system human; settings: 21-day incubation at 4° C.
Description: as §1, §2

T1 sequence (P07550 whole entry, one chain of several): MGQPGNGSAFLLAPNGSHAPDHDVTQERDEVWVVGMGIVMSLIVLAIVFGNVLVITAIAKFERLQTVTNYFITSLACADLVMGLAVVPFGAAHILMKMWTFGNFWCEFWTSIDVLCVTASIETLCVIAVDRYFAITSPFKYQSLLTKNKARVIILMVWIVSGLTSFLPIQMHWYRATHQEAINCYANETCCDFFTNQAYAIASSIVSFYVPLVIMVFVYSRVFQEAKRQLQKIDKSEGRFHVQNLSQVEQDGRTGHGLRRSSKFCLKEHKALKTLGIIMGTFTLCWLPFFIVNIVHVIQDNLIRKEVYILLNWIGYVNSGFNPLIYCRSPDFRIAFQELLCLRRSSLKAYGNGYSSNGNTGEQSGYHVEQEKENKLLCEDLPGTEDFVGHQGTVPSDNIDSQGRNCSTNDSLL

With `CCCCCCCCCCCOCC1C2CC([C@H]1COCCCCCCCCCCC)[C@H](O[C@@H]1OC(CO)[C@@H](O[C@H]3OC(CO)[C@@H](O)C(O)C3O)C(O)C1O)C2O[C@@H]1OC(CO)[C@@H](O[C@H]2OC(CO)[C@@H](O)C(O)C2O)C(O)C1O` (some centres unmarked) [X-NBM-C11] the “Size/homogeneity of β2AR protein-detergent complexes (SEC)” value [1] was “homogeneous PDCs with the same size as that formed by DDM” and the “β2AR-Gs complex stability by SEC profiles” value [2] was “perfectly maintained complex stability”.
